{"source": "patent US20200360372A1", "about": "“COMBINATION THERAPY FOR THE TREATMENT OF ACUTE MYELOID LEUKEMIA” (ASTELLAS PHARMA INC., priority 2016, published 2020)", "system": "MV4-11 cells", "experiment": "Anti-apoptosis protein expression in MV4-11 cells (western blot)", "format": "cell-based, human", "details": "24 hours", "experimental": "Anti-Apoptosis Protein Expression\nMV4-11 cells were seeded on 15 cm dish and cultured overnight. The cells were treated with compound A at 0 (DMSO) or 10 nmol/L in combination with azacitidine at 0 (DMSO) or 1000 nmol/L at final concentration. The assay was performed in duplicate. After twenty-four hours, cells were harvested and lysed with lysis buffer (RIPA Buffer [Thermo Fisher Scientific], 1×Halt Phosphatase Inhibitor Cocktail [Thermo Fisher Scientific], and Protease Inhibitor Cocktail [Sigma-Aldrich]). The samples are centrifuged, and protein concentrations of supernatants were determined using the Pierce (trademark) 660 nm Protein Assay (Thermo Fisher Scientific). Aliquots of 2.0 μg protein/μL were prepared in sample buffer (10 mmol/L dithiothreitol (DTT) [Nacalai Tesque] and 1×SDS sample buffer [Wako Pure Chemical Industries, Ltd.], in lysis buffer), and then were boiled for 5 min.\nThe samples were separated by electrophoresis and transferred with Trans-Blot (registration symbol) Turbo transfer Pack PVDF (Bio-Rad Laboratories). After blocking with Blocking One (Nacalai Tesque) for 1 hour, each membrane was incubated with antibodies against MCL-1 (#5453, Cell Signaling Technology), BCL2L10 (#3869. Cell Signaling Technology), Survivin (#AF886, R&D Systems), cleaved PARP (#9541, Cell Signaling Technology), or Actin (A2066, Sigma-Aldrich) overnight in a cold room. After washing, the membranes were then incubated with an anti-rabbit IgG HRP-linked antibody (#7074, Cell Signaling Technology) for 1 hour at room temperature. After a final wash, signals for the each proteins were detected using a chemiluminescence reagent ECL-prime Blotting Detection Reagent (GE Healthcare) with a CCD camera (ImageQuant LAS4000. GE Healthcare)."}
{"smiles": "CCc1nc(C(N)=O)c(Nc2ccc(N3CCC(N4CCN(C)CC4)CC3)c(OC)c2)nc1NC1CCOCC1", "note": "[compound A hemifumarate, 6-ethyl-3-({3-methoxy-4-[4-(4-methylpiperazin-1-yl)piperidin-1-yl]phenyl}amino)-5-(tetrahydro-2H-pyran-4-ylamino)pyrazine-2-carboxamide hemifumarate]", "values": [{"measurement": "expression of anti-apoptosis protein BCL2L10", "setting": "10 nmol/L", "result": "inhibits"}, {"measurement": "expression of anti-apoptosis protein MCL-1", "setting": "10 nmol/L", "result": "inhibits"}, {"measurement": "expression of anti-apoptosis protein survivin", "setting": "10 nmol/L", "result": "inhibits"}, {"measurement": "PARP cleavage", "setting": "compound A 10 nmol/L with or without azacitidine 1000 nmol/L", "result": "increase"}]}
